Reference: patent publication US20050192279A1, “Pyridazinones as antagonists of alpha4 integrins” (priority 2004, published 2005)
Each block holds one molecule with its values, some of them ahead of it.

Columns and labels:
circulating leukocytes = assay: In Vivo Model for Leukocytosis; set-up: species or system Balb/c mice; settings: bled 1-1.5 h after administration
Source text: In Vivo Model for Leukocytosis
Leukocytosis is the increase in circulating white blood cells (leukocytes). This can be brought about by preventing leukocyte binding to counter-receptor adhesion molecules expressed on high endothelial venules. This cell adhesion occurs between immunoglobulin superfamily molecules and integrins. Relevant examples of these paired interactions include […] Adhesion Molecule-1 and AlphaL Beta2 integrin, Vascular Cell Adhesion Molecule-1 and α4β1 integrin, and Mucosal Addressin Cell Adhesion Molecule-1 and α4β7 integrin, respectively.
In this model, a compound that antagonizes these leukocyte-endothelial interactions will cause an increase in circulating leukocytes, defined as leukocytosis, as measured at 1-1.5 h post-administration. This leukocytosis is indicative that normal lymphocyte or leukocyte emigration from the peripheral circulation was prevented. Similar emigration of cells out of the circulation into inflamed tissues is responsible for the progression and maintainance of the inflammatory state. Leukocytosis is an indication that lymphocyte and leukocyte extravasation is prevented, and is predictive of general anti-inflammatory activity.
One week prior to being tested, 7-10 week old female Balb/c mice, n=8 per group, were bled and randomized according to leukocyte counts. One week later, the mice were adminstered test compound orally or subcutaneously and then bled 1-1.5 h after drug administration, approximately 1 h after the peak blood concentration of the compound occurred. Whole blood, 250-350 microliters, was collected from each mouse into potassium-EDTA serum collection tubes (Becton-Dickenson) and mixed to prevent clotting.
Cell counts and differential counts on the whole blood preparation were performed using an Advia 120 Hematology System (Bayer Diagnostics). Cell counts as total leukocytes and as total lympohcytes were made and compared to counts made from mice dosed with vehicle only. Data were reported as percent of vehicle control for lymphocyte counts and total leukocyte counts.
Statistical analyses were performed using ANOVA with Dunnet's multiple comparison test.

TNBS induced colitis = assay: Trinitrobenzenesulfonic acid (TNBS) Induced Colitis, rats; assay type: in vivo, Male Wistar rats; settings: rat
Source text: In Vivo Model: Trinitrobenzenesulfonic acid (TNBS) Induced Colitis The TNBS model of experimental colitis (Bobin-Dubigeon, C., Collin, X., Grimaud, N., Robert, J-M., Guillaume Le Baut, G., and Petit, J-Y. Effects of tumour necrosis factor-a synthesis inhibitors on rat trinitrobenzene sulphonic acid-induced chronic colitis. Eur. J. […] These symptomatic signs in the above—mentioned models are similar to what occur in human colitis. Male Wistar rats (200-250 g) are inoculated with 500 microliters of a solution of 10 to 20 mg of TNBS in 30% ethanol delivered intracolonically via catheter or ball-tipped gavage needle to the 8th cm from the anus. When Balb/c female mice (8-12 weeks of age) were used, the inoculation volume was 50 microliters containing 2-3 mg of TNBS in 30% ethanol delivered intracolonically via catheter or ball-tipped gavage needle to the 4th cm from the anus. During the ensuing 7 days, test animals were administered a preparation of an experimental compound. This material may be administered orally, subcutaenously or intraperitoneally, once or twice daily. At the end of this period, the animals were euthanized and their colons were collected for further analysis. Among the parameters analyzed were the length of the colon starting from the anus to the top of the cecum, the weight of the colon, the consistency of any stools found within the colon, the presence or absence of intraperitoneal adhesions on the serosal surfacr of the intestin, and the gross macroscopic appearance of the colon. […] In rats, the distal colon between the 5th and the 8th centimeter is dissected and placed in 10% neutral buffered formalin for later histological analysis. In mice, the 1st to the 4th cm was collected for histological analyses. For the following parameters—colon length, colon weight, stool consistency and appearance and macroscopic damage—a scoring system was used to describe the changes. The four scores for each animal were added to provide a Total Score. […] For the presence of blood in stool, one point was added to scores <3. […] Histological analyses of tissues consisted of staining paraffin-embedded tissue sections with hematoxylin-eosin dye. Epithelial damage scores were determined as the fraction of the tissue section showing damaged epithelium. […] Statistic analyses for these experiments performed with Graphpad Prism 4.0, using ANOVA, with Dunnets or Bonferroni's multiple comparisons test.

DSS induced colitis = assay: Dextran Sulfate Sodium (DSS) Induced Colitis; assay type: in vivo, Balb/c female mice and C57Black/6 mice
Source text: In Vivo Model for Colitis: Dextran Sulfate Sodium (DSS) Induced Colitis Inflammatory bowel diseases such as ulcerative colitis and Crohn's disease are characterized by diminished intestinal barrier function, apparent inflammatory damage that may include erosive loss of intestinal mucosa, and inflammatory infiltrates in the mucosa and submucosa. […] Among the many possible chemicals used are dextran sulfate sodium (DSS) and trinitrobenzene sulfonic acid (TNBS). The dextran sulfate sodium model of experimental colitis is characterized by a shrinkage of the colon's length, macrosopic inflammatory damage, diarrhea, a discontinuous pattern of mucosal epithelial damage in the distal colon with infiltration of inflammatory cells that include macrophages and neutrophils into the mucosa and submucosa (Blumberg, R. S., Saubermann, L. J., and Strober, W. Animal models of mucosal inflammation and their relation to human inflammatory bowel disease. Current Opinion in Immunology, 11: 648-656, 1999; […]., and Nakaya, R. A novel method of induction of reliable experimental acute and chronic colitis in mice. […] Cooper, […]., and […]. Clinicopathologic study of dextran sulfate sodium experimental murine colitis. Lab Invest., 69: 238-249, 1993; […]., Bajaj-Elliott, M., MacDonald, […]., and Buchler, M. W. Characterization of acute murine dextran sodium sulphate colitis: Cytokine profile and dose dependency. Digestion, 62: 240-248, 2000; […]., Husband, A. J., and Doe, W. F. The inflammatory infiltrate in the acute stage of the dextran sulphate sodium induced colitis: B cell response differs depending on the percentage of DSS used to induce it. BMC Clinical Pathology, 1: 3-13, 2001; and Diaz-Granados, Howe, K., Lu, J, and […]. Dextran sulfate sodium-induced colonic histopathology, but not altered epithelial ion transport, is reduced by inhibition of phosphodiesterase activity. Amer. J. Pathology, 156: 2169-2177, 2000). Balb/c female mice and […]/6 mice were used in these studies. […] When […]/6 mice were used, a solution of tap water containing 4% DSS was used. During the ensuing 7-day period, test animals were administered a preparation of an experimental compound. This material may be administered orally or intraperitoneally or subcutaneously, once or twice daily. At the end of this period, the animals were euthanized and their colons were collected for further analysis. Among the parameters analyzed were the length of the colon starting from the anus to the top of the cecum, the consistency of any stools found within the colon, and the gross macroscopic appearance of the colon. The distal colon between the 1st and the 4th centimeter was removed and placed in 10% neutral buffered formalin for later histological analysis. For the following parameters, colon length, stool consistency and appearance, and macroscopic damage a scoring system is used to describe the changes. […] Thus, […] Histological analyses of tissues consisted of staining paraffin-embedded tissue sections with hematoxylin-eosin dye. Epithelial damage scores were determined as the fraction of the tissue section showing damaged epithelium. […] Statistical analysis performed in Graphpad Prism 4.0 using ANOVA with Dunnet's or Bonferroni's multiple comparison's test.

α4β1 = target: T1, α4β1 (Homo sapiens, UniProt P05556+P13612); assay: Ramos Cell Adhesion Assay (α4β1 Mediated Adhesion/VCAM-1); assay type: cell-based; settings: Ramos cell adhesion to hVCAM-1; read-out: α4β1 IC50
T1 construct: Ramos Cell Adhesion Assay (α4β1 Mediated Adhesion/VCAM-1); endogenous in cells; host or cells: Ramos cells
T1 sequence (P05556 21-798, one chain of several): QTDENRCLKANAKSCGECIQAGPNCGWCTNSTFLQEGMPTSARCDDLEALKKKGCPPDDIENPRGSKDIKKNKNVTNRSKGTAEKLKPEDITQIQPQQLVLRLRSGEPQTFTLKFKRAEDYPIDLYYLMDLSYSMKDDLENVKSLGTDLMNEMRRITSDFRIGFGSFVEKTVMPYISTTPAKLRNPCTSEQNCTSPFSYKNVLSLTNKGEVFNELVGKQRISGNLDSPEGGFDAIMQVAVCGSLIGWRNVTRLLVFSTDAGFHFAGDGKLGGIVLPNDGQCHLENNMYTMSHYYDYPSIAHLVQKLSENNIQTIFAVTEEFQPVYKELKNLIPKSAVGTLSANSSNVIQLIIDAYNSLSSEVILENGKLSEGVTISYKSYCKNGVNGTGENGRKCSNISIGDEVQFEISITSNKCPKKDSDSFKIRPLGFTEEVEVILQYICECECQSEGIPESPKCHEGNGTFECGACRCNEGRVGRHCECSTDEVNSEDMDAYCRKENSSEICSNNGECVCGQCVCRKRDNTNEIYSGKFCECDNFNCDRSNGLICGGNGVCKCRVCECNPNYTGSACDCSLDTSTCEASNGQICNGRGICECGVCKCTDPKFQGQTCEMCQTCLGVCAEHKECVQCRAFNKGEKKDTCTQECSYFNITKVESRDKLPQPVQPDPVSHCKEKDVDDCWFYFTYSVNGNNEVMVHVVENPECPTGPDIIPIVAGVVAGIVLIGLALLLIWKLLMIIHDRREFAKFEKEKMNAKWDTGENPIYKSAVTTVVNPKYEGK
How it was run: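 Plates coated overnight at 4° C with recombinant hVCAM-1 at 4.0 μg/mL, pH 9.0, then blocked in PBS/1% BSA. Calcein AM-labeled Ramos cells added with compounds and left to adhere 1 h at room temperature; after washing, cells lysed in 1 M Tris pH 8.0/1% SDS.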

human α4β7 integrin = target: T2, human α4β7 integrin (Homo sapiens, UniProt P13612+P26010); assay: α4β7-K562 Cell Adhesion Assay (α4β7 Mediated Adhesion/MAdCAM-1); assay type: cell-based; settings: α4β7-K562 cell adhesion to hMAdCAM-1; read-out: α4β7 IC50
T2 construct: expressed in transfected cells; host or cells: K562 cells, stably transfected
T2 sequence (P13612 34-1032): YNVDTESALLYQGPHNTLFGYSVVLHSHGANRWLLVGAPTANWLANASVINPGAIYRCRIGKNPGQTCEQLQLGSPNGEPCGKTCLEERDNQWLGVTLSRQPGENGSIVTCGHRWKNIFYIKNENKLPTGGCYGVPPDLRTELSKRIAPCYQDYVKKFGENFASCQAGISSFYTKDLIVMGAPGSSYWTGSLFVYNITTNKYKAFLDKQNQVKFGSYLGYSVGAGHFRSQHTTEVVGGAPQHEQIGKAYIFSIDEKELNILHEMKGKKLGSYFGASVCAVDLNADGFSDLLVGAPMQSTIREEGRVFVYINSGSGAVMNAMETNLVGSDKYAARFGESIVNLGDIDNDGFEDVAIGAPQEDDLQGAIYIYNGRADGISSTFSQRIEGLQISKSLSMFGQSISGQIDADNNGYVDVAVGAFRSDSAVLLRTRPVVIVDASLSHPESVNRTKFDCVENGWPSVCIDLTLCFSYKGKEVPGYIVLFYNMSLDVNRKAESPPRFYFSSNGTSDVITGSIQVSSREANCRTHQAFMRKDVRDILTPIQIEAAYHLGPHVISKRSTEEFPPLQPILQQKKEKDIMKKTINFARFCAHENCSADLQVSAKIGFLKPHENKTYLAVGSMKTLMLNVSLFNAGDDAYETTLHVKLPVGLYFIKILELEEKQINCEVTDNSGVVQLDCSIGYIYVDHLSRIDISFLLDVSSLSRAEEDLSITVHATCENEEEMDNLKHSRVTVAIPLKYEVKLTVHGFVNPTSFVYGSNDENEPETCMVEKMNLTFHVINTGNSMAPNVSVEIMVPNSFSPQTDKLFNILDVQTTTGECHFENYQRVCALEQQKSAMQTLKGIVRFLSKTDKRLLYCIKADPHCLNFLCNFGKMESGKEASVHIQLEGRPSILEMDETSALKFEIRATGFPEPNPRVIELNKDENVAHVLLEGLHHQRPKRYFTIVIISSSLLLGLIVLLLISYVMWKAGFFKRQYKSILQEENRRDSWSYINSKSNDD
T2 sequence (P26010 20-798): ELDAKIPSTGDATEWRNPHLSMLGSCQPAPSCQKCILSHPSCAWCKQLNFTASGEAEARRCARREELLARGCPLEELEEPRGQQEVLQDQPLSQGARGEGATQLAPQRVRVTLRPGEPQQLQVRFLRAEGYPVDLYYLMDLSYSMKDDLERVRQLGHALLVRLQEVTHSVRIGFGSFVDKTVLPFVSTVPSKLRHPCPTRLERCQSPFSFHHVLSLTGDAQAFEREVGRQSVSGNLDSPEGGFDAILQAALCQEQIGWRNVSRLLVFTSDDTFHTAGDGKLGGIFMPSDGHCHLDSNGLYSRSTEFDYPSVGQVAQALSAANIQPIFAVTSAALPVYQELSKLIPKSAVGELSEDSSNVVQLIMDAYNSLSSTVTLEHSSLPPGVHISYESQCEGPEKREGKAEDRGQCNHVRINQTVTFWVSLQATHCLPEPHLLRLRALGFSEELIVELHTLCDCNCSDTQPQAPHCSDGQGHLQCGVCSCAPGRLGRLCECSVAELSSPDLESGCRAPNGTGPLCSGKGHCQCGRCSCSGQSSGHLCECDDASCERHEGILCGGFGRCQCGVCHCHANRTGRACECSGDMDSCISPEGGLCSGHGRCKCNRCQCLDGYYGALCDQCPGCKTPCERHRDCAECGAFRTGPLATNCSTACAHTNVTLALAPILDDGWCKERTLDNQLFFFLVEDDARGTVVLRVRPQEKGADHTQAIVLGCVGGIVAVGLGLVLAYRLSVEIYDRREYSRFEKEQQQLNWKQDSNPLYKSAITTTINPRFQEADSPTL
How it was run: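 Anti-FLAG plates coated 1 h at 4° C with FLAG-hMAdCAM-1 in PBS pH 7.4, 1% BSA, 1 mM Mn2+. Stably transfected K562 cells expressing human α4β7, labelled with CFDA-SE, adhered with compound 1 h at room temperature. After four washes, bound cells lysed in 0.1 M NaOH for fluorescence read-out.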

[1] = 30 mg/kg po bid, C57 Black/6 mice
[2] = 60 mg/kg po bid, C57 Black/6 mice

SMILES: COc1cnn(CCO)c(=O)c1-c1ccc(C[C@H](NC(=O)OC(C)(C)C)C(=O)OCCO)cc1 [Cpd 231]
- Lymphoycte Counts % of Vehicle Control (circulating leukocytes; 3 mg/kg po): 114.5%
- Total Leukocyte Count % of Vehicle Control (circulating leukocytes; 3 mg/kg po): 110.7%
- Lymphoycte Counts % of Vehicle Control (circulating leukocytes; 10 mg/kg po): 94.0%
- Total Leukocyte Count % of Vehicle Control (circulating leukocytes; 10 mg/kg po): 98.0%
- Lymphoycte Counts % of Vehicle Control (circulating leukocytes; 30 mg/kg po): 88.7%
- Total Leukocyte Count % of Vehicle Control (circulating leukocytes; 30 mg/kg po): 86.9%
- % Inhibition of Epithelial Damage Score (TNBS induced colitis; 30 mg/kg po bid): 24.69%
- % Inhibition of Total Macroscopic Score (TNBS induced colitis; 30 mg/kg po bid): 19.33%
- % Inhibition of Epithelial Damage Score (TNBS induced colitis; 60 mg/kg po bid): 38.64%
- % Inhibition of Total Macroscopic Score (TNBS induced colitis; 60 mg/kg po bid): 5.455%
- % Inhibition of Epithelial Damage Score (DSS induced colitis; [1]): 23.91%
- % Inhibition of Total Macroscopic Score (DSS induced colitis; [1]): 13.4%
- % Inhibition of Total Macroscopic Score (DSS induced colitis; 30 mg/kg po bid, balb/c mice): 43.8%
- % Inhibition of Epithelial Damage Score (DSS induced colitis; [2]): 53.9%
- % Inhibition of Total Macroscopic Score (DSS induced colitis; [2]): 23.4%
- % Inhibition of Epithelial Damage Score (DSS induced colitis; 60 mg/kg po bid, balb/c mice): 36.5%
- % Inhibition of Total Macroscopic Score (DSS induced colitis; 60 mg/kg po bid, balb/c mice): 47.7%

- IC50 (α4β1): > 5 µM
SMILES: COc1cnn(C)c(=O)c1-c1ccc(C[C@H](NC(=O)c2cc(F)ccc2Cl)C(=O)OCCO)cc1 [Cpd 2]
- % Inhibition of Epithelial Damage Score (TNBS induced colitis; 30 mg/kg po bid): 10.25%
- % Inhibition of Total Macroscopic Score (TNBS induced colitis; 30 mg/kg po bid): −0.885%

- IC50 (α4β1): > 5 µM
- IC50 (human α4β7 integrin): 93 nM
SMILES: COc1cnn(C)c(=O)c1-c1ccc(C[C@H]2C(=O)OCN2C(=O)c2c(Cl)cccc2Cl)cc1 [Cpd 114, (S)-4-{4-[3-(2,6-Dichloro-benzoyl)-5-oxo-oxazolidin-4-ylmethyl]-phenyl}-5-methoxy-2-methyl-2H-pyridazin-3-one]

- IC50 (α4β1): > 5 µM
- IC50 (human α4β7 integrin): 1160 nM
SMILES: COc1cnn(C)c(=O)c1-c1ccc(C[C@H](NC(=O)c2cccn(C)c2=O)C(=O)O)cc1 [Cpd 193]

- IC50 (α4β1): 2.81 µM
- IC50 (human α4β7 integrin): 514 nM
SMILES: COc1cnn(C)c(=O)c1-c1ccc(C[C@H](NC(=O)c2ccc(CO)cc2)C(=O)O)cc1 [Cpd 170]
